Values of other authors in US10155994B2, “Methods of detecting DDR2 mutations” (QUEST DIAGNOSTICS INVESTMENTS INCORPORATED, priority 2012, dated 2018).

Conditions: current daily oral dosing; from Bradeen et al. Blood 2006

achievable plasma trough concentration [nM] | Compound
100 | Cc1nc(Nc2ncc(C(=O)Nc3c(C)cccc3Cl)s2)cc(N2CCN(CCO)CC2)n1 [dasatinib]
2000 | Cc1cn(-c2cc(NC(=O)c3ccc(C)c(Nc4nccc(-c5cccnc5)n4)c3)cc(C(F)(F)F)c2)cn1 [nilotinib]
